Test results taken from patent US9156824B2, “CDC7 inhibitors” (Eli Lilly and Company, priority 2013, dated 2015).
Marks after values point to notes of the source that are not given here.

Experiments:
[1] = target: T1, CDC7/DBF4 (Homo sapiens, UniProt O00311); test: CDC7/DBF4 in vitro enzyme assay (Transcreener Kinase ADP-FP); assay type: biochemical; conditions: ATP 5 μM, MCM2 400 nM, 60 minutes, read-out: IC50 against CDC7/DBF4 kinase
T1 construct: host or cells: insect cells
Procedure: The Transcreener™ Kinase ADP-FP assay is used to determine compound IC50 values against CDC7/DBF4 kinase. The Kinase ADP-FP assay assesses the activity of CDC7/DBF4 in the presence of compound inhibitors by measuring the concentration of ADP formed in a kinase reaction. The kinase reaction is performed using a 25 microliter reaction volume in 96 well assay plate. For the ADP-FP assay, the reagents are added to obtain the final reaction conditions of HEPES (25 mM) pH 7.5, 0.03% Triton® X-100, magnesium chloride (10 mM), DTT (1 mM), MCM2 (400 nM) (Amino Acid 1-209, a physiological substrate of CDC7/DBF4), spermine (4 mM), CDC7/DBF4 (2,640 ng/mL) (recombinant human CDC7/DBF4 expressed in insect cells), 4% dimethyl sulfoxide and serial dilutions of compound (diluted 1:3 from 20,000 nM to 1 nM). Enzyme and substrate is added to compound followed by ATP to 5 μM to start the reaction. The plates are incubated at room temperature for 60 minutes.
For the ADP-FP format add 25 microliters of a quench detection reagent containing HEPES (52 mM) pH 7.5, EDTA (20 mM), sodium chloride (0.4 M), polyoxyethyleneglycol dodecyl ether (0.02%) (BRIJ-35™), anti-ADP antibody (10 μg/mL), and ADP (4 nM) Transcreener® ADP Alexa Fluor® 633 tracer to quench the reaction. The plates are incubated for 1 hour, and then read in a Wallac EnVision™ 2104 Multilabel Reader (PerkinElmer) in Fluorescence Polarization mode using polarizing filters of Ex620nm and Em688nm wavelength. Millipolarization (mP) raw data is converted to micromolar ADP using a prepared ADP/ATP standard curve starting at 5 μM ADP 1:1 serial dilution in reaction buffer to 0.0025 μM ADP. The IC50 value for each compound is derived using percent inhibition data calculated from the μM ADP reaction data relative to on-plate controls (DMSO versus 100 mM EDTA inhibited enzyme controls). The percent inhibition and ten-point compound concentration data is then fitted to a four-parameter logistic equation.

[2] = Antitumor efficacy in human colorectal carcinoma SW620 mouse xenograft model; assay type: in vivo; conditions: female, athymic Balb/c nude, mouse, in vivo, po; BID orally for 2 weeks, tumor-bearing nude mice; read-out: maximum tolerated dose
Procedure: (§1) The in vivo anticancer activity of Example 4 is studied in human colorectal adenocarcinoma cell line SW620 mouse xenograft tumor model which is predicted to be sensitive based on in vitro cell counting proliferative assay data described above. The SW620 cell line is obtained from American Type Culture Collection (ATCC) and is cultured in Leibovitz's L-15 Medium with 10% fetal bovine serum following ATCC instructions. SW620 cell suspension (5.0×10^6/0.2 mL) is injected subcutaneously to the right flank of each female athymic Balb/c nude mice. The mice (5-6 weeks old at arrival) are obtained from Shanghai Sippr-bk Laboratory Animals Ltd. Upon receipt and throughout the study, the animals are housed 5 animals per cage in appropriately sized solid-bottom cages with contact bedding Animals are acclimated for 7 days prior to implantation of the SW620 cells. Animals are fed with Shanghai Laboratory Animal Center certified Rodent Diet with 23% Protein ad libitum and autoclaved tap water is provided ad libitum. The animal room is maintained on a 12-hour light/dark cycle. When the tumor volume reaches an average of 154.9 mm^3 (9 days post tumor implantation), the tumor bearing animals are randomly grouped into 9 groups (8 animals/group) with similar mean tumor volume and body weight. The average body weight of the tumor-bearing mice is 17.3 g. The compound is formulated in HEC 1% w/v, P80 0.25% v/v, and antifoam 1520-US 0.025% v/v in deionized water by probe sonication for 15 minutes on ice and compound formulation is prepared daily for animal dosing. The formulated compound is administered at 10.4, 20.8 and 31.2 mg/kg doses (containing 10, 20 and 30 mg/kg active pharmaceutical ingredient API, respectively) twice a day (BID) by oral gavage (0.1 mL/20 g) for 2 weeks. The BID dosing is performed about 8 hours apart (approximately 9 am and 5 pm each day). The vehicle is also given BID as the control arm of the study. Tumor volume and body weight are measured 3 times a week in a blinded manner. Tumor volume is determined by caliper measurements (mm) and using the formula for an ellipsoid sphere: tumor volume (mm^3)=length×width^2/2, where length and width refer to the larger and smaller perpendicular dimensions collected at each measurement. The animal behavior and animal health are monitored twice a day during dosing period. The study is terminated on day 28 post treatment initiation.
(§2) The statistical analysis of the tumor volume data begins with a data transformation to a log scale to equalize variance across time and treatment groups. The log volume data are analyzed with a two-way repeated measures analysis of variance by time and treatment using the MIXED procedures in SAS software (Version 9.3). The correlation model for the repeated measures is Spatial Power. Treated groups are compared to the control group at each time point. The MIXED procedure is also used separately for each treatment group to calculate adjusted means and standard errors at each time point. Both analyses account for the autocorrelation within each animal and the loss of data that occurs when animals with large tumors are removed from the study early. The adjusted means and standard errors are plotted for each treatment group versus time. The analysis comparing the treated groups to the control groups at each time point uses the log 10 tumor volumes and produces the p-values. For statistical significance of p-values shown, “***”=P<0.001.
(§3) If T>T0, the Delta T/C, % calculation is used. […]

[3] = test system: SW620 xenograft tumors; test: as above; assay type: in vivo; conditions: for % T/C day 16: SW620 xenograft
Procedure: as §1, §2, §3

T1 sequence (O00311 whole entry): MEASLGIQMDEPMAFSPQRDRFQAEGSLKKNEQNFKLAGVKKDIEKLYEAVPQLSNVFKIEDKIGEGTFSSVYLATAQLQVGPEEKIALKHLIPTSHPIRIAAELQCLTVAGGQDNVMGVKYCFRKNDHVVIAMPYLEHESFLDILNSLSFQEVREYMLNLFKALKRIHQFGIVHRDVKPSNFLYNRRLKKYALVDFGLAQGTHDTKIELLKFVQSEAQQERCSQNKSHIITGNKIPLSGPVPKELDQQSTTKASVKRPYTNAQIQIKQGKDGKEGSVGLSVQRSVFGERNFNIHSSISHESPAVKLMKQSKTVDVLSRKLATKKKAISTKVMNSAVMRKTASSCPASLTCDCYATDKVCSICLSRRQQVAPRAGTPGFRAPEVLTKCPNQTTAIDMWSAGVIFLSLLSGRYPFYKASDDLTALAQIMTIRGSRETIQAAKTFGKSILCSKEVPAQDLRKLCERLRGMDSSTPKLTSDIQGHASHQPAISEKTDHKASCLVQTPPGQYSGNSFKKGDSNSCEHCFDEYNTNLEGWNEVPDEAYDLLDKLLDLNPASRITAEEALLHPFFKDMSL
T1 sequence (Q9UBU7 whole entry partner): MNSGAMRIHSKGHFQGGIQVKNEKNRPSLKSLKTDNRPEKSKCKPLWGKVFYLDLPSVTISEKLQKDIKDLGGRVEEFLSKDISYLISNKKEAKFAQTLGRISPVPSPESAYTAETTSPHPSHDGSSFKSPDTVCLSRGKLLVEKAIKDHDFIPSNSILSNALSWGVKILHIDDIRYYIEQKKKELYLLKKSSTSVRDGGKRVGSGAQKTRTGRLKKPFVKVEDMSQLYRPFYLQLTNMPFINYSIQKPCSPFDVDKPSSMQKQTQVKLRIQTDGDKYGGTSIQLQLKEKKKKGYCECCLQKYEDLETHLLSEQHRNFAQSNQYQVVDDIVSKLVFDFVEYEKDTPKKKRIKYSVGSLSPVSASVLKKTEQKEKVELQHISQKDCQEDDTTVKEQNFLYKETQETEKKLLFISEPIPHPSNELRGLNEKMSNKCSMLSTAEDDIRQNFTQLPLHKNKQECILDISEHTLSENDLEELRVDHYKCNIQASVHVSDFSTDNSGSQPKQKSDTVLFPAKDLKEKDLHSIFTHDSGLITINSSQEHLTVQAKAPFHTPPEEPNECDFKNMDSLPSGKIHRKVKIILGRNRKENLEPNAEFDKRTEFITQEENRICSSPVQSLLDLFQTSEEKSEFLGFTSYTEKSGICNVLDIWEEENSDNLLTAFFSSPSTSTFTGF

## CC1(c2ncncc2F)NC(=O)c2cc(-c3cn[nH]c3)ccc21 (single isomer, unassigned; isomer 2) [Example 4, 3-(5-Fluoropyrimidin-4-yl)-3-methyl-6-(1H-pyrazol-4-yl)isoindolin-1-one, Isomer 2, Hydrate]
[1]
  IC50: 3.3 nM
[2]
  MTD at 2 weeks: 31.2 mg/kg
[3]; 10.4 mg/kg BID × 14, orally
  % T/C day 16: 26.1*** %
[3]; 20.8 mg/kg BID × 14, orally
  % T/C day 16: 5.7*** %
[3]; 31.2 mg/kg BID × 14, orally, negative value = regression
  % T/C day 16: −66.1*** %
[3]; 31.2 mg/kg BID, 2 weeks after dosing cessation
  tumor growth after dosing cessation: no significant tumor growth
